Data from publication PMC4077706, “Lifting the Mask: Identification of New Small Molecule Inhibitors of Uropathogenic Escherichia coli Group 2 Capsule Biogenesis” (PLoS ONE, 2014).
Like-named read-outs stand apart in the source and are kept apart here.

Tests used:
[1] = tested on: E. coli strains 536 (K15), CFT073 (K2), DS17 (K5), UTI89 (K1); experiment: Visualization of capsule using Alcian blue staining; type: cell-based, Escherichia coli; conditions: 200 µM
[2] = type: physicochemical
Experimental: SI2-Supporting Information- Goller et al.
Experimental procedures for aqueous and LB medium solubility, hepatic microsome stability, PAMPA permeability, and plasma stability
Aqueous and LB Medium Solubility: Solubility analysis was performed using a direct UV kinetic solubility method in a 96-well format. All liquid dispense and transfer steps were performed with the Freedom Evo automated liquid handler (Tecan US). Solubility measurements were performed in buffer solution (PBS (pH 7.4) or LB medium), in duplicate. Samples were incubated at room temperature for a minimum of 18 hrs to achieve equilibrium, then filtered (filter plate, pION Inc, P/N 110322) to remove any precipitate formed. The concentration of the compounds was measured by UV absorbance (250-498 nm) using the Infinite M200 (Tecan US) and compared to the spectra of the precipitation-free reference solutions. Spectroscopically pure 1-Propanol (Sigma P/N 256404) was used as a cosolvent to suppress precipitation in the reference solutions.
The solubility of each compound was determined using µSOL Evolution Plus software v3.2 (pION Inc) and is expressed as the concentration (µg/mL) of a solute in a saturated solution. […]
Hepatic Microsome Stability: Metabolic stability was assessed in the presence of human liver microsomes (XenoTech, P/N H0630) and mouse liver microsomes (XenoTech, P/N M1000). […]

Adenosine A1 = molecular target: T1, Adenosine A1 (Homo sapiens, UniProt P30542); experiment: Radioligand binding 200510; conditions: 10 µM
T1 construct: host or cells: CHO cells

[3] = molecular target: T2, Androgen (Testosterone) AR (Rattus norvegicus, UniProt P15207); type: binding; conditions: 10 µM
T2 construct: Eurofins Panlabs (assay Cat #) 285010; host or cells: E. coli

Dopamine D1 = molecular target: T3, Dopamine D1 (Homo sapiens, UniProt P21728); type: binding; conditions: 10 µM
T3 construct: host or cells: CHO cells

Dopamine D3 = molecular target: T4, Dopamine D3 (Homo sapiens, UniProt P35462); type: binding; conditions: 10 µM
T4 construct: host or cells: CHO cells

[4] = molecular target: T5, Epidermal Growth Factor (EGF) (Homo sapiens, UniProt P00533); experiment: Radioligand binding 225510; conditions: 10 µM
T5 construct: Human A431 cells; host or cells: A431 cells

GABAA, Muscimol, Central = type: binding, rat; conditions: 10 µM
GABAB1A = molecular target: T6, GABAB1A (Homo sapiens, UniProt Q9UBS5); experiment: Radioligand binding 228610; conditions: 10 µM
T6 construct: host or cells: CHO cells

Glutamate, NMDA, Agonism = Glutamate, NMDA, Agonism (Rattus norvegicus, UniProt Q00959); experiment: Radioligand binding 232810; conditions: 10 µM
Muscarinic M1 = molecular target: T7, Muscarinic M1 (Homo sapiens, UniProt P11229); experiment: Radioligand binding 252610; conditions: 10 µM
T7 construct: host or cells: CHO-K1 cells

Muscarinic M2 = molecular target: T8, Muscarinic M2 (Homo sapiens, UniProt P08172); experiment: Radioligand binding 252710; conditions: 10 µM
T8 construct: host or cells: CHO-K1 cells

Neuropeptide Y Y1 = molecular target: T9, Neuropeptide Y Y1 (Homo sapiens, UniProt P25929); experiment: Radioligand binding 257010; conditions: 10 µM
T9 construct: Human SK-N-MC cells; host or cells: SK-N-MC cells

Opiate κ(OP2, KOP) = Opiate κ(OP2, KOP) (Homo sapiens, UniProt P41145); type: binding; conditions: 10 µM
Phorbol Ester = experiment: Radioligand binding 264500; parameters: species or system mouse; conditions: 10 µM
[5] = molecular target: T10, Platelet Activating Factor (PAF) (Homo sapiens, UniProt P25105); type: binding; conditions: 10 µM
T10 construct: Human platelets; host or cells: human platelets

Potassium Channel [KATP] = molecular target: T11, Potassium Channel [KATP] (Cricetus cricetus, UniProt Q09427); type: binding, hamster; conditions: 10 µM
T11 construct: Hamster pancreatic HIT-T15 beta; host or cells: HIT-T15 hamster pancreatic beta cells

Purinergic P2X = experiment: Radioligand binding 268700; parameters: species or system rabbit; conditions: 10 µM
Thyroid Hormone = Thyroid Hormone (Rattus norvegicus, UniProt P18113); type: binding; conditions: 10 µM
[6] = Human
Dopamine D2S = Dopamine D2S (Homo sapiens, UniProt P14416); type: binding; parameters: host or cells: CHO cells; conditions: 10 µM
Muscarinic M3 = Muscarinic M3 (Homo sapiens, UniProt P20309); type: binding; parameters: host or cells: CHO-K1 cells; conditions: 10 µM
Chain of Muscarinic M3 (P20309 whole entry): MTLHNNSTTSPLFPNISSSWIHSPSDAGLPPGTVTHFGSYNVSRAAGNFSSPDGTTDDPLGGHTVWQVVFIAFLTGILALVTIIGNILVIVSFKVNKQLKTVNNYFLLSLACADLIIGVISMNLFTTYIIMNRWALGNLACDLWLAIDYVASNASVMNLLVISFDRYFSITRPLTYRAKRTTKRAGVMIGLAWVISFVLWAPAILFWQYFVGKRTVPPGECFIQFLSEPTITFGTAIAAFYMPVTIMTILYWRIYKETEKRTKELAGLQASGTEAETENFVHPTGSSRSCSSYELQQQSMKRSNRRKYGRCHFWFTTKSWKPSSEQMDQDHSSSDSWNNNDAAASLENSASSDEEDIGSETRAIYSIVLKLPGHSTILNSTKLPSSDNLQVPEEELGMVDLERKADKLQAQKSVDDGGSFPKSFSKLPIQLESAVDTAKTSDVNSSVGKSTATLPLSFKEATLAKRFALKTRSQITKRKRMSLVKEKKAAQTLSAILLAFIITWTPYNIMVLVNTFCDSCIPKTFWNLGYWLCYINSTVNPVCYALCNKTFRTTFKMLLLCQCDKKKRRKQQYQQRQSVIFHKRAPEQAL

T5 sequence (P00533 25-1210): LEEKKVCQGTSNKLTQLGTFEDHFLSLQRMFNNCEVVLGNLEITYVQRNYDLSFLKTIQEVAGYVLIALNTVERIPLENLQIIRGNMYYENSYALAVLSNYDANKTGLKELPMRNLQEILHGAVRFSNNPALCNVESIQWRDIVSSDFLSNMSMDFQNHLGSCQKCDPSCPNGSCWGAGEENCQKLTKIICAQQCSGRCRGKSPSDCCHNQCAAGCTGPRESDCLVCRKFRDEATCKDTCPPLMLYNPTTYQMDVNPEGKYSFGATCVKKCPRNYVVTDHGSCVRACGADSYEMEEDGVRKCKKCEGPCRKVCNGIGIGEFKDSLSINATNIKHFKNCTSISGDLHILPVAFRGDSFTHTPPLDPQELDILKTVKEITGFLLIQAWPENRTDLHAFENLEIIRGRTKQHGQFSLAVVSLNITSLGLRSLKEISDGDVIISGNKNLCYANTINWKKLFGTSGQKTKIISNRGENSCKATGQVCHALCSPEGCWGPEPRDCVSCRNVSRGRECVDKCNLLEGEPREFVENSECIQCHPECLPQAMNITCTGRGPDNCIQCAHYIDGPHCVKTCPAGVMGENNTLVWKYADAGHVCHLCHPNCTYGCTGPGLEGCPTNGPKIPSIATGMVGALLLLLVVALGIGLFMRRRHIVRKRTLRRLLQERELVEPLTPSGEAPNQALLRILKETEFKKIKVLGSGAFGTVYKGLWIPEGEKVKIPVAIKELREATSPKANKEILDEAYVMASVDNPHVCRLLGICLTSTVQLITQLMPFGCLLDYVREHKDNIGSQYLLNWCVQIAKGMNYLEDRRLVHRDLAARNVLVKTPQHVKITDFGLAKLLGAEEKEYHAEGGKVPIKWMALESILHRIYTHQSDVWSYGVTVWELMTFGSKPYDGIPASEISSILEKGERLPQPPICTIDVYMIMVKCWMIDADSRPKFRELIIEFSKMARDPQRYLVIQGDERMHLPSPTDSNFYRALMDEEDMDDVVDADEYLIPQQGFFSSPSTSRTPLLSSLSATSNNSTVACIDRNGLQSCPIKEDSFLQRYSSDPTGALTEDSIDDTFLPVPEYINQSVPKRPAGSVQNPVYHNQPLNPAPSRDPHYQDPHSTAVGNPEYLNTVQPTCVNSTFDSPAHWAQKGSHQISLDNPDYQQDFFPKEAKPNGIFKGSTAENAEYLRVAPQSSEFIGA
Chain of Thyroid Hormone (P18113 whole entry): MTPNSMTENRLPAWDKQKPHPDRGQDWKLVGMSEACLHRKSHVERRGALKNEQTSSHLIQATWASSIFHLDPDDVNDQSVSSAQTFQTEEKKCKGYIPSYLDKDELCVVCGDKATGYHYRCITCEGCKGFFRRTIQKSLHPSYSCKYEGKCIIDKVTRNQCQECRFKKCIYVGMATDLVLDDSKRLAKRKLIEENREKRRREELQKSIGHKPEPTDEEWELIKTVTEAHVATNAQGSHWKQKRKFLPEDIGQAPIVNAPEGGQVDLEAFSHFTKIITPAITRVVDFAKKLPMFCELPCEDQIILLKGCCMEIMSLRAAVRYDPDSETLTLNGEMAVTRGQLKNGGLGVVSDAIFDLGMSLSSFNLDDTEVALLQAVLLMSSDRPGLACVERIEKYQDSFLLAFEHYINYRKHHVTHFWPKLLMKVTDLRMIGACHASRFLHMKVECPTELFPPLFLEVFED
T6 sequence (Q9UBS5 15-961): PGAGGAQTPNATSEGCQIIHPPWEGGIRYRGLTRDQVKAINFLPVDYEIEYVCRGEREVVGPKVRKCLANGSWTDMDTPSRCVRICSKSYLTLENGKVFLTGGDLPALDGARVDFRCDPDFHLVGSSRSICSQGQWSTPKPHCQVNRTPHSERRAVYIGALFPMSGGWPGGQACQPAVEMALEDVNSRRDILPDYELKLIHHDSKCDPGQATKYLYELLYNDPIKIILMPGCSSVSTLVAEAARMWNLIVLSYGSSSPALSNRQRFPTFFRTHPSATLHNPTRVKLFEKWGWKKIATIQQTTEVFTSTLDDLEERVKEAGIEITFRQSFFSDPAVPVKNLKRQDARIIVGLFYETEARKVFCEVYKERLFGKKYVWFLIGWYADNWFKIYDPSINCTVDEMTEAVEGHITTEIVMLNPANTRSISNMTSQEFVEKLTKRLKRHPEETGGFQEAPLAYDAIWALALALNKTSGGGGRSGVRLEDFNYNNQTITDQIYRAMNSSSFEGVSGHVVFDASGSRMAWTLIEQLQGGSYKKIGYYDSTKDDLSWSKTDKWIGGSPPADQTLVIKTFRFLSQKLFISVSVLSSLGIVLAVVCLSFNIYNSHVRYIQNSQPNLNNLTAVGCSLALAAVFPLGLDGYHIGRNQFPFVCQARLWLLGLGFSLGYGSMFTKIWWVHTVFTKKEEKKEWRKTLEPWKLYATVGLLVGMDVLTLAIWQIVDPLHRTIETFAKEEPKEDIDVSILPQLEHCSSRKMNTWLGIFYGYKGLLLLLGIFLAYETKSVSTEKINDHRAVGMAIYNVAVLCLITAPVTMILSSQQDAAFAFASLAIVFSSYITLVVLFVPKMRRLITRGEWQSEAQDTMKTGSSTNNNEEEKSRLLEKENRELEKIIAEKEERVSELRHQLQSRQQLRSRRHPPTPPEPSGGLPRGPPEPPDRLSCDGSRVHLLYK
T9 sequence (P25929 whole entry): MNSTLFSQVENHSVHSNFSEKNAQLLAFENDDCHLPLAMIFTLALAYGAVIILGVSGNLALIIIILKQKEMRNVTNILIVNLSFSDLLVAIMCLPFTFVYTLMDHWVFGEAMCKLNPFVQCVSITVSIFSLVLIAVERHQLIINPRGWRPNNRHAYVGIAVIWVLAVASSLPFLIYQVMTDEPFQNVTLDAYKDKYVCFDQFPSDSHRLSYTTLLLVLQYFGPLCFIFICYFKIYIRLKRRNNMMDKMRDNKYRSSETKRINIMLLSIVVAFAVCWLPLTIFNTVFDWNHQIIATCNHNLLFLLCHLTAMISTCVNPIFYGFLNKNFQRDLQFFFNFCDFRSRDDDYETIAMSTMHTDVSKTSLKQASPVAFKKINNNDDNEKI
Chain of Dopamine D2S (P14416 other isoform, or with tags, fused parts or gaps): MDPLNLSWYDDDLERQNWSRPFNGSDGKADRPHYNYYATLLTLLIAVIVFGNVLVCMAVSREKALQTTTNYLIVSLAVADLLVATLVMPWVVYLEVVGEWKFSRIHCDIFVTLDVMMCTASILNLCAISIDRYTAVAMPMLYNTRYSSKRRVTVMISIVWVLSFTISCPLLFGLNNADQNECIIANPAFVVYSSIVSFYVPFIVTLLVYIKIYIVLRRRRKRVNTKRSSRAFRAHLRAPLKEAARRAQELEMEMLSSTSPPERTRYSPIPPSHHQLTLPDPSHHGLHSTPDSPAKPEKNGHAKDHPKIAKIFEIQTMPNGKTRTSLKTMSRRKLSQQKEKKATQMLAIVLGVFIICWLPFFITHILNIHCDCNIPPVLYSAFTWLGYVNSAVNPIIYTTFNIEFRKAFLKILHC
T4 sequence (P35462 whole entry): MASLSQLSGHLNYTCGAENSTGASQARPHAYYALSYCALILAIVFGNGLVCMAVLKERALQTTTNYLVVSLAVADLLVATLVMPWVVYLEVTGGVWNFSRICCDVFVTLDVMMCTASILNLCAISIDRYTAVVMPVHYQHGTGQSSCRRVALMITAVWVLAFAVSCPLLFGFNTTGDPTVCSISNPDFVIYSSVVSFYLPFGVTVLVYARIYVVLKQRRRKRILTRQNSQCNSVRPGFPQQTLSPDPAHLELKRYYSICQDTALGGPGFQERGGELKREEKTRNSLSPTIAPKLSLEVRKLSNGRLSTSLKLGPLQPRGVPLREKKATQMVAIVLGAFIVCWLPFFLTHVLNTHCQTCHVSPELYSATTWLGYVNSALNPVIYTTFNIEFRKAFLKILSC
T3 sequence (P21728 whole entry): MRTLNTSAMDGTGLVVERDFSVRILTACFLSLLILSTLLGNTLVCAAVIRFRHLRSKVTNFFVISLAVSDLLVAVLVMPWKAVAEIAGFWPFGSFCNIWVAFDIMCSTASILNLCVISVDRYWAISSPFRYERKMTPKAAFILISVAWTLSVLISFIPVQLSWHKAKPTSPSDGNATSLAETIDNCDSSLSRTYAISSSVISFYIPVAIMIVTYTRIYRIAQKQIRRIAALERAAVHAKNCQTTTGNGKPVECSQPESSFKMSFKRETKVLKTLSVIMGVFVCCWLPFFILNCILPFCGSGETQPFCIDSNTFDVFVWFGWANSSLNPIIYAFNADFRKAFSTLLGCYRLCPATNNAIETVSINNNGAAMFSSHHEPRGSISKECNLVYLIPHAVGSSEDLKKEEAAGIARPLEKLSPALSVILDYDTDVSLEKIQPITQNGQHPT

## CCOc1ccc(-c2cc(NC(=O)c3c(F)cccc3F)c(C(=O)O)s2)cc1 [DU011]
[1]; CFT073 (K2 serotype)
  reduction in capsular material from CFT073: slightly less than the other serotypes tested
[1]; strains 536, CFT073, DS17, UTI89
  capsular material, alcian blue stained gel: capsule was reduced in each strain
[2]; 1× PBS
  Aqueous Solubility: 92.6 µg/mL
[2]; LB medium
  Aqueous Solubility: 68 µg/mL
Adenosine A1
  % Inh.: -17%
[3]
  % Inh.: 5%
Dopamine D1
  % Inh.: 4%
Dopamine D3
  % Inh.: 6%
[4]
  % Inh.: 8%
GABAA, Muscimol, Central
  % Inh.: 4%
GABAB1A
  % Inh.: 7%
Glutamate, NMDA, Agonism
  % Inh.: -8%
Muscarinic M1
  % Inh.: 10%
Muscarinic M2
  % Inh.: 5%
Neuropeptide Y Y1
  % Inh.: 2%
Opiate κ(OP2, KOP)
  % Inh.: 10%
Phorbol Ester
  % Inh.: 1%
[5]
  % Inh.: -1%
Potassium Channel [KATP]
  % Inh.: 12%
Purinergic P2X
  % Inh.: 6%
Thyroid Hormone
  % Inh.: 20%
[6]
  Plasma Stability, percent remaining at 3 hrs: 95.31%
Dopamine D2S
  % Inh.: -6%
Muscarinic M3
  % Inh.: -3%
